This note sets out measurements from patent publication US11572399B2, “Long-acting GIP peptide analogues” (University of Copenhagen, priority 2017, dated 2023).

Assay [1] addresses T1, human GIP receptor (Homo sapiens, UniProt P48546).
T1 construct: host or cells: COS-7, transient transfection (calcium phosphate), cDNA in pCMV-Script
T1 sequence (P48546 22-466): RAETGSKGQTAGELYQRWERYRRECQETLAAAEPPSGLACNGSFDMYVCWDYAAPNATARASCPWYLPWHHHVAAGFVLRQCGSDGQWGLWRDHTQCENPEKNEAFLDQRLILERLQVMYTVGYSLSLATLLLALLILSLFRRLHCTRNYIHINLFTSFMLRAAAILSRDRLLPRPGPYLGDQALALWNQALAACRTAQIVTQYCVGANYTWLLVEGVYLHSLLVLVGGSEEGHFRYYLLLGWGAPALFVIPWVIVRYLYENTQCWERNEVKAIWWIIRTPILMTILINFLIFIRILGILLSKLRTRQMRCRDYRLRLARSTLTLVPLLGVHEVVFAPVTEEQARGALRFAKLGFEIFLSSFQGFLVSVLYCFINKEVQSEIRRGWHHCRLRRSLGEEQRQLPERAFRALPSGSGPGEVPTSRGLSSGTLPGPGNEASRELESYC
Description: cAMP accumulation assay, antagonism of a GIP-mediated cAMP response (50-80% of max). It is filed as cell-based. As for the experimental part: The day after, the cells were washed twice with Hepes buffered saline (HBS) buffer and incubated with HBS and 1 mM 3-isobutyl-1-methylxanthine (IBMX) for 30 min at 37° C. […] The HitHunter™ cAMP XS assay (DiscoveRx) was carried out according to the manufacturer's instructions.
For orientation: cAMP levels reflect the balance of adenylyl cyclase and phosphodiesterase activity.

Assay [2] has as its target T1, human GIP receptor. Description: cAMP accumulation assay, agonism (ligand alone). It is filed as cell-based. As to conditions: COS-7 cells, Table 1; for Emax: COS-7, intrinsic cAMP activity; for EC50: read-out: cAMP agonism nM (EC50).
The target in assay [3] is T1, human GIP receptor. Description: 125I-human GIP competition binding assay, in the presence and absence of 2% HSA.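 Further: nonspecific binding taken as radioligand bound to untransfected cells, IC50 obtained from nonlinear regression fits.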 To be noted: fold change +HSA/−HSA.
[4] abbreviates: transiently transfected COS-7 cells, Table 1 and text, read-out: cAMP antagonism nM (IC50, antagonistic potency).

Where two headings read alike, the source gives them in different places. Side chains are listed from the residue outwards. Peptide text beside a SMILES is read from it. * marks the point of attachment. C16 diacid = O=C(O)CCCCCCCCCCCCCCC(=O)*; Palmitoyl = CCCCCCCCCCCCCCCC(=O)*; GABA = NCCCC(=O)O

Turning to `CC[C@H](C)[C@H](NC(=O)[C@H](CO)NC(=O)[C@H](Cc1ccc(O)cc1)NC(=O)[C@H](CC(=O)O)NC(=O)[C@H](CO)NC(=O)[C@@H](NC(=O)[C@H](Cc1ccccc1)NC(=O)[C@@H](NC(=O)CNC(=O)[C@@H](N)CCC(=O)O)[C@@H](C)O)[C@@H](C)CC)C(=O)N[C@@H](C)C(=O)N[C@@H](CCSC)C(=O)N[C@@H](CC(=O)O)C(=O)N[C@@H](CCCCN)C(=O)N[C@H](C(=O)N[C@@H](Cc1c[nH]cn1)C(=O)N[C@@H](CCC(N)=O)C(=O)N[C@@H](CCC(N)=O)C(=O)N[C@@H](CC(=O)O)C(=O)N[C@@H](Cc1ccccc1)C(=O)N[C@H](C(=O)N[C@@H](CC(N)=O)C(=O)N[C@@H](Cc1c[nH]c2ccccc12)C(=O)N[C@@H](CC(C)C)C(=O)N[C@@H](CC(C)C)C(=O)N[C@@H](C)C(=O)N[C@@H](CCCCNC(=O)CCCCCCCCCCCCCCC(=O)O)C(=O)N[C@@H](CCCCN)C(N)=O)C(C)C)[C@@H](C)CC` [AT318, [hGIP(3-30)NH2[Q29K]-C16diacid/29]] (H-EGTFISDYSIAMDKIHQQDFVNWLLAK(C16 diacid)K-NH2; N-terminus assumed), at human GIP receptor [1] (setting [4]), the IC50 (as a rule, the concentration needed to halve the response being measured) amounted to 224 nM. At human GIP receptor [2], the maximal effect (Emax) (usually the size of the effect at its maximum, as opposed to the concentration needed) was 10.8% and the EC50 (in general, the concentration at which the effect is half-maximal) is 131 nM.

On to `CC[C@H](C)[C@H](NC(=O)[C@H](CO)NC(=O)[C@H](Cc1ccc(O)cc1)NC(=O)[C@H](CC(=O)O)NC(=O)[C@H](CCCCNC(=O)CCCCCCCCCCCCCCC(=O)O)NC(=O)[C@@H](NC(=O)[C@H](Cc1ccccc1)NC(=O)[C@@H](NC(=O)CNC(=O)[C@@H](N)CCC(=O)O)[C@@H](C)O)[C@@H](C)CC)C(=O)N[C@@H](C)C(=O)N[C@@H](CCSC)C(=O)N[C@@H](CC(=O)O)C(=O)N[C@@H](CCCCN)C(=O)N[C@H](C(=O)N[C@@H](Cc1c[nH]cn1)C(=O)N[C@@H](CCC(N)=O)C(=O)N[C@@H](CCC(N)=O)C(=O)N[C@@H](CC(=O)O)C(=O)N[C@@H](Cc1ccccc1)C(=O)N[C@H](C(=O)N[C@@H](CC(N)=O)C(=O)N[C@@H](Cc1c[nH]c2ccccc12)C(=O)N[C@@H](CC(C)C)C(=O)N[C@@H](CC(C)C)C(=O)N[C@@H](C)C(=O)N[C@@H](CCC(N)=O)C(=O)N[C@@H](CCCCN)C(N)=O)C(C)C)[C@@H](C)CC` [AT299, [hGIP(3-30)NH2[S8K]-C16diacid/8]] (H-EGTFIK(C16 diacid)DYSIAMDKIHQQDFVNWLLAQK-NH2; N-terminus assumed), for which the IC50 at human GIP receptor [1] (setting [4]) was 199 nM. For the same compound, at human GIP receptor [2], the maximum response (Emax) was found to be 15.2% and the EC50 stood at 15 nM.

In the case of `CC[C@H](C)[C@H](NC(=O)[C@H](CO)NC(=O)[C@H](Cc1ccc(O)cc1)NC(=O)[C@H](CCCCNC(=O)CCCCCCCCCCCCCCC(=O)O)NC(=O)[C@H](CO)NC(=O)[C@@H](NC(=O)[C@H](Cc1ccccc1)NC(=O)[C@@H](NC(=O)CNC(=O)[C@@H](N)CCC(=O)O)[C@@H](C)O)[C@@H](C)CC)C(=O)N[C@@H](C)C(=O)N[C@@H](CCSC)C(=O)N[C@@H](CC(=O)O)C(=O)N[C@@H](CCCCN)C(=O)N[C@H](C(=O)N[C@@H](Cc1c[nH]cn1)C(=O)N[C@@H](CCC(N)=O)C(=O)N[C@@H](CCC(N)=O)C(=O)N[C@@H](CC(=O)O)C(=O)N[C@@H](Cc1ccccc1)C(=O)N[C@H](C(=O)N[C@@H](CC(N)=O)C(=O)N[C@@H](Cc1c[nH]c2ccccc12)C(=O)N[C@@H](CC(C)C)C(=O)N[C@@H](CC(C)C)C(=O)N[C@@H](C)C(=O)N[C@@H](CCC(N)=O)C(=O)N[C@@H](CCCCN)C(N)=O)C(C)C)[C@@H](C)CC` [AT300, [hGIP(3-30)NH2[D9K]-C16diacid/9]] (H-EGTFISK(C16 diacid)YSIAMDKIHQQDFVNWLLAQK-NH2; N-terminus assumed), on human GIP receptor [1] (setting [4]), the half-inhibitory concentration (IC50) was 22 nM. In addition, on human GIP receptor [2] (intrinsic cAMP activity), the “cAMP agonism Emax” value is listed as “no ag”.

As to `CC[C@H](C)[C@H](NC(=O)[C@H](CO)NC(=O)[C@H](Cc1ccc(O)cc1)NC(=O)[C@H](CC(=O)O)NC(=O)[C@H](CO)NC(=O)[C@@H](NC(=O)[C@H](Cc1ccccc1)NC(=O)[C@@H](NC(=O)CNC(=O)[C@@H](N)CCC(=O)O)[C@@H](C)O)[C@@H](C)CC)C(=O)N[C@@H](C)C(=O)N[C@@H](CCCCNC(=O)CCCCCCCCCCCCCCC(=O)O)C(=O)N[C@@H](CC(=O)O)C(=O)N[C@@H](CCCCN)C(=O)N[C@H](C(=O)N[C@@H](Cc1c[nH]cn1)C(=O)N[C@@H](CCC(N)=O)C(=O)N[C@@H](CCC(N)=O)C(=O)N[C@@H](CC(=O)O)C(=O)N[C@@H](Cc1ccccc1)C(=O)N[C@H](C(=O)N[C@@H](CC(N)=O)C(=O)N[C@@H](Cc1c[nH]c2ccccc12)C(=O)N[C@@H](CC(C)C)C(=O)N[C@@H](CC(C)C)C(=O)N[C@@H](C)C(=O)N[C@@H](CCC(N)=O)C(=O)N[C@@H](CCCCN)C(N)=O)C(C)C)[C@@H](C)CC` [AT305, [hGIP(3-30)NH2[M14K]-C16diacid/14]] (H-EGTFISDYSIAK(C16 diacid)DKIHQQDFVNWLLAQK-NH2; N-terminus assumed), the half-inhibitory concentration (IC50) on human GIP receptor [1] (setting [4]) was 166 nM. Also, at human GIP receptor [2], the Emax worked out at 12% and the EC50 was 8 nM.

As to `CC[C@H](C)[C@H](NC(=O)[C@H](CO)NC(=O)[C@H](Cc1ccc(O)cc1)NC(=O)[C@H](CC(=O)O)NC(=O)[C@H](CO)NC(=O)[C@@H](NC(=O)[C@H](Cc1ccccc1)NC(=O)[C@H](CCCCNC(=O)CCCCCCCCCCCCCCC(=O)O)NC(=O)CNC(=O)[C@@H](N)CCC(=O)O)[C@@H](C)CC)C(=O)N[C@@H](C)C(=O)N[C@@H](CCSC)C(=O)N[C@@H](CC(=O)O)C(=O)N[C@@H](CCCCN)C(=O)N[C@H](C(=O)N[C@@H](Cc1c[nH]cn1)C(=O)N[C@@H](CCC(N)=O)C(=O)N[C@@H](CCC(N)=O)C(=O)N[C@@H](CC(=O)O)C(=O)N[C@@H](Cc1ccccc1)C(=O)N[C@H](C(=O)N[C@@H](CC(N)=O)C(=O)N[C@@H](Cc1c[nH]c2ccccc12)C(=O)N[C@@H](CC(C)C)C(=O)N[C@@H](CC(C)C)C(=O)N[C@@H](C)C(=O)N[C@@H](CCC(N)=O)C(=O)N[C@@H](CCCCN)C(N)=O)C(C)C)[C@@H](C)CC` [AT296, [hGIP(3-30)NH2[T5K]-C16diacid/5]], the half-maximal inhibitory concentration (IC50) at human GIP receptor [1] (setting [4]) worked out at 14 nM. For the same compound, at human GIP receptor [2], the maximal response (Emax) was 6.7% and the concentration for a half-maximal effect (EC50) was found to be 2.6 nM.

For the compound `CCCCCCCCCCCCCCCC(=O)NCCCC(=O)NCCCC[C@H](NC(=O)[C@@H](NC(=O)[C@H](CCCCN)NC(=O)[C@H](CC(=O)O)NC(=O)[C@H](CCSC)NC(=O)[C@H](C)NC(=O)[C@@H](NC(=O)[C@H](CO)NC(=O)[C@H](Cc1ccc(O)cc1)NC(=O)[C@H](CC(=O)O)NC(=O)[C@H](CO)NC(=O)[C@@H](NC(=O)[C@H](Cc1ccccc1)NC(=O)[C@@H](NC(=O)CNC(=O)[C@@H](N)CCC(=O)O)[C@@H](C)O)[C@@H](C)CC)[C@@H](C)CC)[C@@H](C)CC)C(=O)N[C@@H](CCC(N)=O)C(=O)N[C@@H](CCC(N)=O)C(=O)N[C@@H](CC(=O)O)C(=O)N[C@@H](Cc1ccccc1)C(=O)N[C@H](C(=O)N[C@@H](CC(N)=O)C(=O)N[C@@H](Cc1c[nH]c2ccccc12)C(=O)N[C@@H](CC(C)C)C(=O)N[C@@H](CC(C)C)C(=O)N[C@@H](C)C(=O)N[C@@H](CCC(N)=O)C(=O)N[C@@H](CCCCN)C(N)=O)C(C)C` [AT165, [hGIP(3-30)NH2[H18K]-C16/18+y-aminobuturic acid]] (H-EGTFISDYSIAMDKIK([GABA-Palmitoyl])QQDFVNWLLAQK-NH2; N-terminus assumed), the “Fold change from GIP(3-30)NH2 (increase in potency)” value at human GIP receptor [1] (Table 5) was 2.9 fold.

As to `CC[C@H](C)[C@H](NC(=O)[C@H](CO)NC(=O)[C@H](Cc1ccc(O)cc1)NC(=O)[C@H](CC(=O)O)NC(=O)[C@H](CO)NC(=O)[C@@H](NC(=O)[C@H](Cc1ccccc1)NC(=O)[C@@H](N)[C@@H](C)O)[C@@H](C)CC)C(=O)N[C@@H](C)C(=O)N[C@@H](CCSC)C(=O)N[C@@H](CC(=O)O)C(=O)N[C@@H](CCCCN)C(=O)N[C@H](C(=O)N[C@@H](Cc1c[nH]cn1)C(=O)N[C@@H](CCC(N)=O)C(=O)N[C@@H](CCC(N)=O)C(=O)N[C@@H](CC(=O)O)C(=O)N[C@@H](Cc1ccccc1)C(=O)N[C@H](C(=O)N[C@@H](CC(N)=O)C(=O)N[C@@H](Cc1c[nH]c2ccccc12)C(=O)N[C@@H](CC(C)C)C(=O)N[C@@H](CC(C)C)C(=O)N[C@@H](C)C(=O)N[C@@H](CCC(N)=O)C(=O)N[C@@H](CCCCN)C(N)=O)C(C)C)[C@@H](C)CC` [hGIP(5-30)NH2, reference compound], the 50% inhibitory concentration (IC50) on human GIP receptor [1] (cAMP accumulation IC50 (nM), antagonism of GIP-mediated cAMP response, COS-7 cells) worked out at 27.5 nM; at human GIP receptor [1] (cAMP antagonism nM (IC50, antagonistic potency), transiently transfected COS-7 cells, Table 1 and text), 28 nM. Moreover, the “Binding (+/−HSA) Fold” value at human GIP receptor [3] amounted to 1.0.
